pIC50: −log10 of the molar value. Entries after “also recorded” stand apart in the source; their conditions may differ. Read-outs that look alike come from different tables or passages of the source.
How the values were obtained:
Assay type in all cases: cell-based, human
[1] = test system: non-myeloma bone marrow cells; experiment: Ex vivo survival of non-myeloma bone marrow cells; settings: bone marrow cells of 10 myeloma patients, 5 days, 1, 3.3, 10 μM
Method: (§1) Bone marrow cells from 10 patients with multiple myeloma (5 patients at diagnosis and 5 relapsing patients) were harvested and mononuclear cells isolated by ficoll hypaque centrifugation.
(§2) At day 5, cell numbers were counted and the percentage and counts of myeloma cells were determined by FACS staining using an anti-CD138 monoclonal antibody. This made it possible to assay for viable myeloma cells as CD138 is lost on pre-apoptotic myeloma cells (Jourdan, M. et al. (1998) Br. J. Haematol., 100, 637-648). The percentage and count of CD34 hematopoietic progenitors was also determined with an anti-CD34 monoclonal antibody and FACS labeling.
(§3) Bone marrow mononuclear cells from 5 patients with newly diagnosed multiple myeloma or from 5 patients with relapsing multiple myeloma were cultured for 5 days with culture medium and 10% fetal calf serum. […] At the end of culture, cells were counted. Viable myeloma cells were determined using FACS labeling with anti-CD138 monoclonal antibody, as well as viable hematopoietic stem cells using an anti-CD34 monoclonal antibody. Results are expressed as the percentage of viable myeloma cells, non-myeloma cells, or CD34 cells compared to the control culture group without inhibitor.

XG-3 myeloma cell line [2] = experiment: Cell numeration, XG-3; settings: day 3 of culture
Method: (§4) Two myeloma cell lines (XG-3 and XG-12) that are sensitive to compound A (1-(4-{4-[4-(4-chlorophenyl)-pyrimidin-2-ylamino]-benzoyl}-piperazin-1-yl)-ethanone) were selected for the study. To assess the effect of compound A on myeloma cell survival, the percentage apoptotic cells was determined using binding of annexin V to apoptotic cells. The effect of compound A on the cell cycle was assessed by evaluating the percentage of cells in the S phase of the cell cycle by incorporation of BrdU-FITC. Apoptosis, cell cycle and cell numeration were evaluated daily on a four day culture period on the cell lines using the IC10, IC50 and I90 respective doses of compound A.

XG-12 myeloma cell line = experiment: Cell numeration, XG-12; settings: day 3 of culture
Method: as §4

[3] = test system: CD138+ primary myeloma cells; experiment: Ex vivo survival of primary myeloma cells in bone marrow culture; settings: bone marrow cells of 10 myeloma patients, 5 days, 1, 3.3, 10 μM
Method: as §1, §2, §3

[4] = test system: myeloma cell lines (XG-3 and XG-12); experiment: Induction of apoptosis (annexin V) in myeloma cell lines; settings: XG-3 and XG-12, IC10, IC50, IC90 doses, four day culture
Excerpt: (§5) Apoptotic cells were detected using fluorescein isothiocyanate-labelled annexin V (FITC-annexin-V, Boehringer Mannheim). Annexin V has a high affinity for phosphatidylserine present on the outer cytoplasmic membrane of apoptotic cells. Cells were washed, labeled with FITC-annexin-V according to the manufacturer's recommendations and analyzed with a FACScan flow cytometer using Cell Quest software (Becton Dickinson, Moutain View, Calif., USA).
as §4

XG-3 myeloma cell line [5] = experiment: Detection of apoptosis (FITC-annexin V), XG-3; settings: day 3 of culture
Excerpt: as §5, §4

XG3 myeloma cell line = experiment: Cell proliferation assay (tritiated thymidine incorporation), XG3; settings: Homo sapiens, XG3, alone or with fixed Velcade/Melphalan
Method: (§6) Myeloma cells were harvested in the exponential growth phase (at day 3 after culture passage when the cell concentration is around 5×10^5 cells/ml). Cells were washed twice, cultured for 3 hours in RPMI1640 and 10% FCS, washed twice. This makes it possible to remove cell-bound growth factors (in particular recombinant IL-6). Then cells are plated in 96-well flat-bottomed microplates at various concentrations depending on their doubling time: • 5×10^3 cells/well in 100 μl for the cell lines: XG-1, XG-7 • 10^4 cells/well in […] for the cell lines: XG-2, XG-4, XG-6, XG-11, PRMI8226, L363 • 2×10^4 cells/well in 100 μl for the cell lines: XG-3, XG-12, XG-13, XG-14, XG-19, XG-20
(§7) The culture medium used were: • PRMI1640, 10% FCS and 0.5 ng/ml of IL-6 for XG-1, XG-2, XG-3, XG-4, XG-6, XG-7, XG-11, XG-12, XG-13, XG-19, XG-20 cells • X-VIVO20 and 0.5 ng/ml IL-6 for XG-14 cells • PRMI1640 and 10% FCS for RPMI8226 and L363 cells
(§8) The diluted compounds, DMSO or control culture medium were added in 100 μl at the start of the culture. Three culture wells were done for one compound dilution and the experiments were done twice (finally six culture wells for one compound dilution).
(§9) Cells were cultured for 4 days. Eight hours before the end of the culture, 0.5 μCi of tritiated thymidine were added in 50 μl of RPMI1640 and 10% FCS. Cells were then extracted with a cell collector and the thymidine incorporation was determined using a beta cell counter.
(§10) For each experiment, the mean tritiated thymidine incorporations (mean values determined on three culture wells) were plotted against the logarithmic concentrations of the compound. The curves were fitted with exponential regression, which was determined using the concentrations defining the inhibition response (usually 3-4 concentrations).
(§11) The concentrations yielding 50% and 90% inhibition of the proliferation of myeloma cells were determined with these regression curves.
(§12) The concentration yielding 10% (IC10) or 50% (IC50) inhibition of the myeloma cell lines were determined and the data are listed in Table 2.
(§13) Compound A was tested in combination with melphalan or Velcade. Increasing concentration of compound A (0, 0.01, 0.03, 0.12, 0.37, 1.1, 3.1, 10, 30 μM) were applied on 4 myeloma cell lines alone or in combination with Velcade or melphalan at concentration yielding around 10% or 50% inhibition.

4 myeloma cell lines = experiment: Combination study of compound A with Velcade or melphalan, proliferation; settings: XG3, XG12, XG7, L363
Method: as §6, §7, §8
Cells were cultured for 4 days. […] Cells were then extracted with a cell collector and the thymidine incorporation was determined using a beta cell counter. […]

L363 myeloma cell line = experiment: Cell proliferation assay (tritiated thymidine incorporation), L363; settings: alone or with fixed Velcade/Melphalan; for pIC50: concentration of compound A yielding 50% inhibition of proliferation, read-out: IC50; for IC90: concentration of compound A yielding 90% inhibition of proliferation
Method: as §6, §7, §8, §9, §10, §11, §12, §13

[6] = XG-3, compound A at IC10 concentration
[7] = XG-3, compound A at IC50 concentration
[8] = XG-3, compound A at IC90 concentration

pIC50 (XG3 myeloma cell line; concentration of compound A yielding 50% inhibition of proliferation, read-out: IC50): 5.83
IC90 (XG3 myeloma cell line; concentration of compound A yielding 90% inhibition of proliferation): 6.35 µM
pIC50 (L363 myeloma cell line; Homo sapiens, L-363, L363): 5.63
IC90 (L363 myeloma cell line; Homo sapiens, L-363, L363): 10.1 µM
pIC50 (L363 myeloma cell line; L363): 5.75
IC90 (L363 myeloma cell line; L363): 9.41 µM
Compound: CC(=O)N1CCN(C(=O)c2ccc(Nc3nccc(-c4ccc(Cl)cc4)n3)cc2)CC1 [Compound A, 1-(4-{4-[4-(4-Chloro-phenyl)-pyrimidin-2-ylamino]-benzoyl}-piperazin-1-yl)-ethanone]
survival of other (non-myeloma) bone marrow cells [1]: without affecting the survival of other bone marrow cells
Cells (×10^6/ml) cell counts (XG-3 myeloma cell line [2]; [6]): 0.68 ×10^6/ml
Cells (×10^6/ml) cell counts (XG-3 myeloma cell line [2]; [7]): 0.47 ×10^6/ml
Cells (×10^6/ml) cell counts (XG-3 myeloma cell line [2]; [8]): 0.29 ×10^6/ml
Cells (×10^6/ml) cell counts (XG-12 myeloma cell line; XG-12, compound A at IC50 concentration): 0.35 ×10^6/ml
Cells (×10^6/ml) cell counts (XG-12 myeloma cell line; XG-12, compound A at IC90 concentration): 0.11 ×10^6/ml
survival of primary myeloma cells [3]: inhibits the survival of primary myeloma cells
induction of apoptosis of myeloma cell lines [4]: induced apoptosis of myeloma cell lines; also recorded: dose- and time-dependent
Annexin V (%) percentage of apoptotic cells (XG-3 myeloma cell line [5]; [6]): 29.2%
Annexin V (%) percentage of apoptotic cells (XG-3 myeloma cell line [5]; [7]): 30.7%
Annexin V (%) percentage of apoptotic cells (XG-3 myeloma cell line [5]; [8]): 48.2%
effect of combination with Melphalan on inhibition of myeloma cell proliferation (4 myeloma cell lines; Melphalan at IC10 or IC50): additive effect
effect of combination with Velcade on inhibition of myeloma cell proliferation (4 myeloma cell lines; Velcade at IC10 or IC50): additive effect

Reference: patent publication US20100069316A1, “TREATMENT FOR MULTIPLE MYELOMA” (Ares Trading S.A., priority 2006, published 2010)
